Experimental data taken from ChEMBL document CHEMBL3352417, “Confronting the challenges of discovery of novel antibacterial agents” (Bioorg Med Chem Lett, 2014).
In brackets after ≈: the same amount, converted by molar mass. One block for each molecule: values may come before it.

Key:
[1] = Inhibition of Enterococcus faecalis DNA gyrase subunit B
[2] = Inhibition of Enterococcus faecalis ParE
[3] = Inhibition of beta-lactamase (unknown origin)
[4] = tested on: Staphylococcus aureus; experiment: Antimicrobial activity against Staphylococcus aureus; type: functional
[5] = tested on: Streptococcus pneumoniae; experiment: Antimicrobial activity against Streptococcus pneumoniae; type: functional
[6] = biological target: Voltage-gated inwardly rectifying potassium channel KCNH2 (Homo sapiens, UniProt Q12809); experiment: Inhibition of human ERG
Chain of Voltage-gated inwardly rectifying potassium channel KCNH2 (Q12809 whole entry): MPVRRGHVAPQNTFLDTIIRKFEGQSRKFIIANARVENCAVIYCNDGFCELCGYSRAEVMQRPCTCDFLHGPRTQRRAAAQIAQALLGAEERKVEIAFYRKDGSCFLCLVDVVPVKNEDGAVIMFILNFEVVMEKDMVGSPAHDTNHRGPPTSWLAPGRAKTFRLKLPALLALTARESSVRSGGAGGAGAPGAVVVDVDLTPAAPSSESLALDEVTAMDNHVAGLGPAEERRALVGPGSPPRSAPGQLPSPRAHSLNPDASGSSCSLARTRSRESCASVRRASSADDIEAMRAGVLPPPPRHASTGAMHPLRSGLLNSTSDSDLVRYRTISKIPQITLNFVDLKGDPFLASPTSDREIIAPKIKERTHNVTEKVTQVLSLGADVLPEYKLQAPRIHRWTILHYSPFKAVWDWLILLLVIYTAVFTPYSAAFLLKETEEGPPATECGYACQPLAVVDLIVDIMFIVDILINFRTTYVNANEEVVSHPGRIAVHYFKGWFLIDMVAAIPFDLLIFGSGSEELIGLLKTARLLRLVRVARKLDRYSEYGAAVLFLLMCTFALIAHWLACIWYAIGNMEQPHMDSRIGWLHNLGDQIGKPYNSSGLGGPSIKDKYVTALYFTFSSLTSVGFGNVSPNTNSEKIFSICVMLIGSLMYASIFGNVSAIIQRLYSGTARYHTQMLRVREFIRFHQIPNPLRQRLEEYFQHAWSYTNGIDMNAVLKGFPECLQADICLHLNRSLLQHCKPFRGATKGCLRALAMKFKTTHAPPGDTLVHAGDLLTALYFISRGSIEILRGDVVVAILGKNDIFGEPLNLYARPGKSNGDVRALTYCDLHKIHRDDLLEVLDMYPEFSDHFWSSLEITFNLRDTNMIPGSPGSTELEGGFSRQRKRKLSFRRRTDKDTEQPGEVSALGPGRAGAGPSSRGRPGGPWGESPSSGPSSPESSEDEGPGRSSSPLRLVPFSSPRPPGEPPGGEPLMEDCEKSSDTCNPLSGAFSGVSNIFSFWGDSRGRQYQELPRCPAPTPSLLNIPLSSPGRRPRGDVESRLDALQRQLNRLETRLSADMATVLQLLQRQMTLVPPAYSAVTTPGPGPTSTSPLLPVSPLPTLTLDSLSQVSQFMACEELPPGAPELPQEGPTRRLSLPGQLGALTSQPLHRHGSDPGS

IC50 [1]: < 0.0003 µM | IC50 [2]: < 0.0003 µM
Structure (SMILES): CNc1cc(F)cc2c1[nH]c1nc(Oc3cnc(C)nc3)nc(N3CC4[C@H](N)C[C@]4(C)C3)c12 (stereo partly specified)

IC50 [3]: 0.009 µM
Structure (SMILES): O=C(O)C[C@@H]1CC[C@H](NC(=O)Cc2cccs2)B(O)O1 [VABORBACTAM]

Structure (SMILES): O=c1ccc2ncc(=O)n3c2n1C[C@H]3CN1CCC(NCc2cc3c(cn2)OCCC3)CC1 [GEPOTIDACIN]
MIC90 [4]: 0.5 µg/mL (≈ 1.11 µM) | MIC90 [5]: 0.25 µg/mL (≈ 0.557 µM) | IC50 [6]: 1400 µM
